# Reference: patent US10905764B2, “Hydrated food” (Taiyokagaku Co., Ltd., priority 2005, dated 2021)
# Tests used:
# [1] = Dissolution / water solubility; conditions: in the hydrated food
# [2] = system: mice; type: in vivo; conditions: oral administration of theanine by 5 g/kg
# Description: Theanine used in the invention has a high security. […] Furthermore, theanine is known as a principal component of deliciousness of tea and used as a food additive for use as gustatory. An amount of theanine to be added is not limited under the Food Sanitation Law.
structure (smiles),measurement,setting,value
"CCNC(=O)CC[C@H](N)C(=O)O [theanine, L-theanine]",upper limit of dissolution,[1],250 mg/mL
same,mortality in acute toxicity test,[2],no mice died
